Results on 19 compounds are retold here after patent US20260200897A1, “4-((5-(3-(4-(PYRIDIN-2-YL)CYCLOPENTYL)-1H-PYRAZOL-3-YL)AMINO)-BENZENESULFONAMIDE DERIVATIVES AND SIMILAR COMPOUNDS AS CDK INHIBITORS FOR THE TREATMENT OF CANCER” (BeOne Medicines I GmbH, priority 2023, published 2026).

One experiment deals with CDK2/Cyclin E1 (Homo sapiens, UniProt P24941). In words: CDK2/Cyclin E1 TR-FRET biochemical assay, 1 mM ATP. Conditions: 0.15 μM Rb (Ser780)-biotin substrate, 90 min reaction, Table 2. On the technique in general: In TR-FRET formats the signal depends on donor and acceptor labels being close together.
In another experiment the target is CDK1/Cyclin B1 (Homo sapiens, UniProt P06493). The experiment can be described thus: CDK1/Cyclin B1 TR-FRET biochemical assay, 1 mM ATP. Conditions: 0.15 μM Rb (Ser780)-biotin substrate, 90 min reaction, Table 2.
Chain of CDK1/Cyclin B1 (P06493 whole entry): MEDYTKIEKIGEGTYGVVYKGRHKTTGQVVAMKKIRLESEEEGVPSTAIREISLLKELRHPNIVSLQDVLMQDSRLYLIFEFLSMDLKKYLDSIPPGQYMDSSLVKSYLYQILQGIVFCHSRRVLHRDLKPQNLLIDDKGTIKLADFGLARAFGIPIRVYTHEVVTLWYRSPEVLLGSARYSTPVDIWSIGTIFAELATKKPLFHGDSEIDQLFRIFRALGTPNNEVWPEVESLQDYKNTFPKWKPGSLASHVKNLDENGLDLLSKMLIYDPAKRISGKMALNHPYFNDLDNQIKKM
Chain of CDK1/Cyclin B1 (P14635 whole entry partner): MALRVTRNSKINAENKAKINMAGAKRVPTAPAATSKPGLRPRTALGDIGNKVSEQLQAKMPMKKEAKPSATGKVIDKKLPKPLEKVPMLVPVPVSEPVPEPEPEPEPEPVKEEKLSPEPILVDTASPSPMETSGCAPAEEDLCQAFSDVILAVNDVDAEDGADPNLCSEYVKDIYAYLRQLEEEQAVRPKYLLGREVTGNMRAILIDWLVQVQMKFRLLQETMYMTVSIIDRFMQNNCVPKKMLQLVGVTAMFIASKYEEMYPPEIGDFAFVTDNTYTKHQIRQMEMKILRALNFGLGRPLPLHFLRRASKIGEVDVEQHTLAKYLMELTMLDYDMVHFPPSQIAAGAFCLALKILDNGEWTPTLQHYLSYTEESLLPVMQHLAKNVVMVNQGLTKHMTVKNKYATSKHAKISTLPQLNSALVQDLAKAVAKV

A word on the IC50: it is the midpoint of a concentration-inhibition curve. A low value points to inhibition by little substance. Turning to `CC(C)(C)c1cc(C2CCC(c3cc(Nc4ccc5c(c4F)CNS5(=O)=O)n[nH]3)C2)ncn1` (centres unmarked) [Example 130, 5-((5-(3-(6-(tert-butyl)pyrimidin-4-yl)cyclopentyl)-1H-pyrazol-3-yl)amino)-4-fluoro-2,3-dihydrobenzo[d]isothiazole 1,1-dioxide], the values for the IC50 at CDK2/Cyclin E1 and against CDK1/Cyclin B1 were 2120 nM and above 10000 nM, respectively.

Regarding `CC(C)(C)c1cnnc(C2CCC(c3cc(Nc4ccc5c(c4F)CNS5(=O)=O)n[nH]3)C2)c1` (centres unmarked) [Example 131, 5-((5-(3-(5-(tert-butyl)pyridazin-3-yl)cyclopentyl)-1H-pyrazol-3-yl)amino)-4-fluoro-2,3-dihydrobenzo[d]isothiazole 1,1-dioxide], the IC50 is 167 nM on CDK2/Cyclin E1 and above 10000 nM against CDK1/Cyclin B1.

On to `CC(C)(C)c1cccc(C2CCC(c3cc(Nc4ccc5c(c4F)CNS5(=O)=O)n[nH]3)C2)c1` (centres unmarked) [Example 132, 5-((5-(3-(3-(tert-butyl)phenyl)cyclopentyl)-1H-pyrazol-3-yl)amino)-4-fluoro-2,3-dihydrobenzo[d]isothiazole 1,1-dioxide], for which the IC50 on CDK2/Cyclin E1 and against CDK1/Cyclin B1 was above 10000 nM each time.

`CC(C)(C)c1coc(C2CCC(c3cc(Nc4ccc5c(c4)CS(=O)(=O)N5)n[nH]3)C2)n1` (centres unmarked) [Example 136, 5-((5-(3-(4-(tert-butyl)oxazol-2-yl)cyclopentyl)-1H-pyrazol-3-yl)amino)-1,3-dihydrobenzo[c]isothiazole 2,2-dioxide]: the IC50 turned out to be 60 nM against CDK2/Cyclin E1 and 4950 nM on CDK1/Cyclin B1.

In the case of `CC(C)(C)c1cnc(C2CCC(c3cc(Nc4ccc5c(c4)CS(=O)(=O)N5)n[nH]3)C2)s1` (centres unmarked) [Example 137, 5-((5-(3-(5-(tert-butyl)thiazol-2-yl)cyclopentyl)-1H-pyrazol-3-yl)amino)-1,3-dihydrobenzo[c]isothiazole 2,2-dioxide], the IC50 against CDK2/Cyclin E1 is 2030 nM; against CDK1/Cyclin B1, above 10000 nM.

On to `CN1c2ccc(Nc3cc(C4CCC(c5ncc(C(C)(C)C)o5)C4)[nH]n3)cc2CS1(=O)=O` (centres unmarked) [Example 140, 5-((5-(3-(5-(tert-butyl)oxazol-2-yl)cyclopentyl)-1H-pyrazol-3-yl)amino)-1-methyl-1,3-dihydrobenzo[c]isothiazole 2,2-dioxide], for which the IC50 worked out at 6 nM against CDK2/Cyclin E1 and 624 nM at CDK1/Cyclin B1.

Take `CN1c2ccc(Nc3cc([C@H]4CC[C@@H](c5ncc(C(C)(C)C)o5)C4)[nH]n3)cc2CS1(=O)=O` [Example 141, 5-((5-((1S,3R)-3-(5-(tert-butyl)oxazol-2-yl)cyclopentyl)-1H-pyrazol-3-yl)amino)-1-methyl-1,3-dihydrobenzo[c]isothiazole 2,2-dioxide]: the IC50 on CDK2/Cyclin E1 is 0.6 nM; against CDK1/Cyclin B1, 135 nM.

`CN1c2ccc(Nc3cc([C@@H]4CC[C@H](c5ncc(C(C)(C)C)o5)C4)[nH]n3)cc2CS1(=O)=O` [Example 142, 5-((5-((1R,3S)-3-(5-(tert-butyl)oxazol-2-yl)cyclopentyl)-1H-pyrazol-3-yl)amino)-1-methyl-1,3-dihydrobenzo[c]isothiazole 2,2-dioxide]: the IC50 stood at 12 nM against CDK2/Cyclin E1 and 2530 nM on CDK1/Cyclin B1.

`CC(C)c1cnc(C2CCC(c3cc(Nc4ccc5c(c4)CS(=O)(=O)N5C)n[nH]3)C2)o1` (centres unmarked) [Example 143, 5-((5-(3-(5-isopropyloxazol-2-yl)cyclopentyl)-1H-pyrazol-3-yl)amino)-1-methyl-1,3-dihydrobenzo[c]isothiazole 2,2-dioxide]: the IC50 was 14 nM on CDK2/Cyclin E1 and 1320 nM at CDK1/Cyclin B1.

In the case of `CC(C)(C)c1coc(C2CCC(c3cc(Nc4ccc5c(c4F)CS(=O)(=O)N5)n[nH]3)C2)n1` (centres unmarked) [Example 148, 5-((5-(3-(4-(tert-butyl)oxazol-2-yl)cyclopentyl)-1H-pyrazol-3-yl)amino)-4-fluoro-1,3-dihydrobenzo[c]isothiazole 2,2-dioxide], the values for the IC50 against CDK2/Cyclin E1 and against CDK1/Cyclin B1 were 78 nM and 7400 nM, respectively.

With `CC(C)(O)c1cc(C2CCC(c3cc(Nc4ccc5c(c4F)CS(=O)(=O)N5)n[nH]3)C2)n[nH]1` (centres unmarked) [Example 150, 4-fluoro-5-((5-(3-(5-(2-hydroxypropan-2-yl)-1H-pyrazol-3-yl)cyclopentyl)-1H-pyrazol-3-yl)amino)-1,3-dihydrobenzo[c]isothiazole 2,2-dioxide], the IC50 against CDK2/Cyclin E1 was 189 nM; against CDK1/Cyclin B1, above 10000 nM.

With `C=C(C)c1cc(C2CCC(c3cc(Nc4ccc5c(c4F)CS(=O)(=O)N5)n[nH]3)C2)n[nH]1` (centres unmarked) [Example 151, 4-fluoro-5-((5-(3-(5-(prop-1-en-2-yl)-1H-pyrazol-3-yl)cyclopentyl)-1H-pyrazol-3-yl)amino)-1,3-dihydrobenzo[c]isothiazole 2,2-dioxide], the IC50 was 1400 nM at CDK2/Cyclin E1 and above 10000 nM against CDK1/Cyclin B1.

Consider `CC(C)(C)c1ccc(C2CCC(c3cc(Nc4ccc5c(c4F)CS(=O)(=O)N5)n[nH]3)C2)o1` (centres unmarked) [Example 153, 5-((5-(3-(5-(tert-butyl)furan-2-yl)cyclopentyl)-1H-pyrazol-3-yl)amino)-4-fluoro-1,3-dihydrobenzo[c]isothiazole 2,2-dioxide], for which the IC50 against CDK2/Cyclin E1 is 1020 nM; on CDK1/Cyclin B1 it was above 10000 nM.

For the compound `Cc1nc(C2CCC(c3cc(Nc4ccc5c(c4F)CS(=O)(=O)N5)n[nH]3)C2)oc1C(C)(C)C` (centres unmarked) [Example 154, 5-((5-(3-(5-(tert-butyl)-4-methyloxazol-2-yl)cyclopentyl)-1H-pyrazol-3-yl)amino)-4-fluoro-1,3-dihydrobenzo[c]isothiazole 2,2-dioxide], the IC50 on CDK2/Cyclin E1 came to 9.6 nM; on CDK1/Cyclin B1 it was 540 nM.

Take `CC(C)(C)c1ccnc(C2CCC(c3cc(Nc4ccc5c(c4F)CS(=O)(=O)N5)n[nH]3)C2)c1` (centres unmarked) [Example 155, 5-((5-(3-(4-(tert-butyl)pyridin-2-yl)cyclopentyl)-1H-pyrazol-3-yl)amino)-4-fluoro-1,3-dihydrobenzo[c]isothiazole 2,2-dioxide]: the results for the IC50 on CDK2/Cyclin E1 and against CDK1/Cyclin B1 were 4.6 nM and 685 nM, respectively.

On to `CC(C)(C)c1ccc(C2CCC(c3cc(Nc4ccc5c(c4F)CS(=O)(=O)N5)n[nH]3)C2)nc1` (centres unmarked) [Example 156, 5-((5-(3-(5-(tert-butyl)pyridin-2-yl)cyclopentyl)-1H-pyrazol-3-yl)amino)-4-fluoro-1,3-dihydrobenzo[c]isothiazole 2,2-dioxide], for which the figures for the IC50 at CDK2/Cyclin E1 and at CDK1/Cyclin B1 were 2020 nM and above 10000 nM, respectively.

As for `CC(C)(C)c1cccc(C2=CC(c3cc(Nc4ccc5c(c4F)CS(=O)(=O)N5)n[nH]3)CC2)n1` (centres unmarked) [Example 157, 5-((5-(3-(6-(tert-butyl)pyridin-2-yl)cyclopent-2-en-1-yl)-1H-pyrazol-3-yl)amino)-4-fluoro-1,3-dihydrobenzo[c]isothiazole 2,2-dioxide], the IC50 at CDK2/Cyclin E1 and at CDK1/Cyclin B1 was above 10000 nM in each case.

For `CC(C)(C)c1cccc(C2CCC(c3cc(Nc4ccc5c(c4F)CS(=O)(=O)N5)n[nH]3)C2)n1` (centres unmarked) [Example 158, 5-((5-(3-(6-(tert-butyl)pyridin-2-yl)cyclopentyl)-1H-pyrazol-3-yl)amino)-4-fluoro-1,3-dihydrobenzo[c]isothiazole 2,2-dioxide], the IC50 at CDK2/Cyclin E1 was determined as 84 nM; at CDK1/Cyclin B1, 3930 nM.

As for `Cc1cccc(C2CCC(c3cc(Nc4ccc5c(c4F)CS(=O)(=O)N5)n[nH]3)C2)n1` (centres unmarked) [Example 159, 4-fluoro-5-((5-(3-(6-methylpyridin-2-yl)cyclopentyl)-1H-pyrazol-3-yl)amino)-1,3-dihydrobenzo[c]isothiazole 2,2-dioxide], the IC50 against CDK2/Cyclin E1 was 1040 nM; at CDK1/Cyclin B1, above 10000 nM.
